Read-outs that look alike come from different tables or passages of the source.
Tests used:
[1] = type: physicochemical
From the text: One aspect of the present invention relates to novel salt forms of (R)-3-((E)-2-(pyrrolidin-3-yl)vinyl)-5-(tetrahydropyran-4-yloxy)pyridine. […] However, the free base may react with both inorganic and organic acids to make acid addition salts that have physical properties that are advantageous for the preparation of pharmaceutical compositions such as crystallinity, water solubility, and stability toward chemical degradation.

[2] = molecular target: T1, rat native α7 receptors (Rattus norvegicus, UniProt Q05941); assay: [3H]MLA binding, rat hippocampal membranes
T1 construct: rat native α7 receptors in rat hippocampal membranes; from tissue; host or cells: rat hippocampus (female Sprague-Dawley)
Description: Rats (female, Sprague-Dawley), weighing 150-250 g, were maintained on a 12 h light/dark cycle and were allowed free access to water and food supplied by PMI Nutrition International, Inc. Animals were anesthetized with 70% CO2, and then decapitated. Brains were removed and placed on an ice-cold platform. The hippocampus was removed and placed in 10 volumes (weight:volume) of ice-cold preparative buffer (137 mM NaCl, 10.7 mM KCl, 5.8 mM KH2PO4, 8 mM Na2HPO4, 20 mM HEPES (free acid), 5 mM iodoacetamide, 1.6 mM EDTA, pH 7.4); PMSF, dissolved in methanol to a final concentration of 100 μM, was added and the tissue suspension was homogenized by Polytron. […] Protein was determined by the method of Lowry et al., J. Biol. Chem. 193: 265 (1951), using bovine serum albumin as the standard.
The binding of [^3H]MLA was measured using a modification of the methods of Davies et al., Neuropharmacol. […] The binding of [^3H]MLA was determined using a 2 h incubation at 21° C. […] Non-specific binding was determined by inclusion of 50 μM non-radioactive MLA in selected wells.
The inhibition of [^3H]MLA binding by test compounds was determined by including seven different concentrations of the test compound in selected wells. […] Inhibition constants (Ki values), reported in nM, were calculated from the IC50 values using the method of Cheng et al., Biochem. Pharmacol. 22: 3099-3108 (1973).

[3] = molecular target: CYP2B6 (Homo sapiens, UniProt P20813); type: in vitro ADME
[4] = molecular target: CYP2C9 (Homo sapiens, UniProt P11712); assay: biochemical; type: in vitro ADME
Description: (§1) Inhibition of CYP1A2, CYP2C9, CYP2C19, CYP2D6 and CYP3A4 catalytic activity by (R)-3-((E)-2-(pyrrolidin-3-yl)vinyl)-5-(tetrahydropyran-4-yloxy)pyridine or a slat thereof was assessed using a fluorogenic CYP assay. Probe substrates which fluoresce upon CYP catalyzed oxidation were used to evaluate the degree of inhibition of the test substrate. A single concentration of each probe substrate (at approximately the apparent Km value) and two different concentrations of (R)-3-((E)-2-(pyrrolidin-3-yl)vinyl)-5-(tetrahydropyran-4-yloxy)pyridine hemigalactarate (2 and 20 μM) were tested in duplicate. Fluorescence intensity at selected wavelengths was used as a measure of enzyme activity. Decreased fluorescence in the presence of (R)-3-((E)-2-(pyrrolidin-3-yl)vinyl)-5-(tetrahydropyran-4-yloxy)pyridine or a sat thereof was an indication of inhibition. […] Duplicate samples were run alongside the positive and negative controls. Incubation of test samples was performed at 37° C. Experimental parameters are outlined in Table 2.

[5] = molecular target: CYP2C19 (Homo sapiens, UniProt P33261); assay: biochemical; type: in vitro ADME
Description: as §1

[6] = molecular target: CYP2D6 (Homo sapiens, UniProt P10635); assay: biochemical; type: in vitro ADME
Description: as §1

[7] = molecular target: CYP1A2 (Homo sapiens, UniProt P05177); assay: biochemical; type: in vitro ADME
Description: as §1

[8] = molecular target: CYP3A4 (Homo sapiens, UniProt P08684); assay: biochemical; type: in vitro ADME
Description: as §1

[9] = human
From the text: Therefore any variation of (R)-3-((E)-2-(pyrrolidin-3-yl)vinyl)-5-(tetrahydropyran-4-yloxy)pyridine or a salt thereof metabolism in human due to CYP polymorphism is expected to be less than 2 fold due to the significant renal clearance and low hepatic clearance.

T1 sequence (Q05941 23-502): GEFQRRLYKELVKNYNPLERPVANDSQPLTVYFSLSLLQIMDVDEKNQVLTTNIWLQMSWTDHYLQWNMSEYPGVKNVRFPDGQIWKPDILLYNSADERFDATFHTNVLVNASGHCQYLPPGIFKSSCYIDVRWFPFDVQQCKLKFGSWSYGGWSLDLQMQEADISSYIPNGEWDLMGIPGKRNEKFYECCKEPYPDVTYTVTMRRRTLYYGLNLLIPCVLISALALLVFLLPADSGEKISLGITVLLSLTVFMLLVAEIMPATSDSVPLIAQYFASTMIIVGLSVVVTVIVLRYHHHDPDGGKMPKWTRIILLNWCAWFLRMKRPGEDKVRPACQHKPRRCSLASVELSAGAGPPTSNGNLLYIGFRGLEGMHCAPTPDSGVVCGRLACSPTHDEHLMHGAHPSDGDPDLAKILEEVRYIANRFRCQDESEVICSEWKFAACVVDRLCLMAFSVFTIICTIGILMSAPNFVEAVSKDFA
Sequence of CYP2B6 (P20813 whole entry): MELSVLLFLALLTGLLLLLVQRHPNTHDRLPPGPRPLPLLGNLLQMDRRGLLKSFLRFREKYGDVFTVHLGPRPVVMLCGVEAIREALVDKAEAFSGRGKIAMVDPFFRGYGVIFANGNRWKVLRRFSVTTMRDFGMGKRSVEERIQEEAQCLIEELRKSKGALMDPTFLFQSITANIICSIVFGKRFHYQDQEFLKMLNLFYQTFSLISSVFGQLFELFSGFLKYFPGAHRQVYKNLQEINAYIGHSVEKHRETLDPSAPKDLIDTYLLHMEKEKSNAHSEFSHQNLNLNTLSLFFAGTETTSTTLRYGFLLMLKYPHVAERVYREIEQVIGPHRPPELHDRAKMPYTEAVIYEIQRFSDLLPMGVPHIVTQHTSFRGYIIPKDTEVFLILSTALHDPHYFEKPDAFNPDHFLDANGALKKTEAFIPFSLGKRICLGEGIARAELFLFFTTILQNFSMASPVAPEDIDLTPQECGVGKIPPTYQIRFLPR
Sequence of CYP3A4 (P08684 whole entry): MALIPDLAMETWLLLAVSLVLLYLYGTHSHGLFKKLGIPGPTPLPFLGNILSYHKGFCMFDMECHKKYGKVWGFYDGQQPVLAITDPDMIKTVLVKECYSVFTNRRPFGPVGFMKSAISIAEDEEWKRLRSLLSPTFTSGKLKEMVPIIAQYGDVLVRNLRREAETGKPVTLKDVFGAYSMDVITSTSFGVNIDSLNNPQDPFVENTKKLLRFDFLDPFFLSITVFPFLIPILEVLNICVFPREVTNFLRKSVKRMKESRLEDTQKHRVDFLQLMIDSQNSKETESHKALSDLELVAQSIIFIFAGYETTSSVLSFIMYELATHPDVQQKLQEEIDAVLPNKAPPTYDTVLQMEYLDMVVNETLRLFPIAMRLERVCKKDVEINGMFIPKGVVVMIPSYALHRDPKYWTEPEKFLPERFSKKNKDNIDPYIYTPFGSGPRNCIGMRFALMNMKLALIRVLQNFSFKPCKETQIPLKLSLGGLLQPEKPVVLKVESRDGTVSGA
Sequence of CYP2C9 (P11712 whole entry): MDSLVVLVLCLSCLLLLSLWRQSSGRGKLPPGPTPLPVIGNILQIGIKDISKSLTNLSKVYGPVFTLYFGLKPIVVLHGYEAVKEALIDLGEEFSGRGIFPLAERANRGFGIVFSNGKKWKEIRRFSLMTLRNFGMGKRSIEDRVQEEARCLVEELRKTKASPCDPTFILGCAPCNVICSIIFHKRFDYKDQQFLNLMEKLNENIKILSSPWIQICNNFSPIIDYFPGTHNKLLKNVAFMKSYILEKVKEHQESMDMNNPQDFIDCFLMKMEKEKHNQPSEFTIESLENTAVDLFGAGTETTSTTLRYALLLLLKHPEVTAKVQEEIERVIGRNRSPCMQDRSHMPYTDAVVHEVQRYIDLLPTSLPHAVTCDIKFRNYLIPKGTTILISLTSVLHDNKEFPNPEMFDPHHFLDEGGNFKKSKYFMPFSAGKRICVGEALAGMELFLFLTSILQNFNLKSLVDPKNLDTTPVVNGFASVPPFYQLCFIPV
Sequence of CYP2C19 (P33261 whole entry): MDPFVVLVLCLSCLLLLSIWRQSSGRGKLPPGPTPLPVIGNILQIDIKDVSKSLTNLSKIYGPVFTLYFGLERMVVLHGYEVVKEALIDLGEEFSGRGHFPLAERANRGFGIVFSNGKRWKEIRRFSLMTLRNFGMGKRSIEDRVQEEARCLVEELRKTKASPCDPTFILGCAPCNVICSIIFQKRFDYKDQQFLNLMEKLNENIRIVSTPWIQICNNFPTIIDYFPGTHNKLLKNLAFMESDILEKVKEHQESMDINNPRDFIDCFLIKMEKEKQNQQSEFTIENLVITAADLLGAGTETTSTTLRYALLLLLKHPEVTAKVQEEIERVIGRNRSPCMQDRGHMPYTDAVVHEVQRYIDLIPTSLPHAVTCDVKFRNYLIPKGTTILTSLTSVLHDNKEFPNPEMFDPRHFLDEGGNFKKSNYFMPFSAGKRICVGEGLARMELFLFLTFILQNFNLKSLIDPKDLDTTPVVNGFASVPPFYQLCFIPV
Sequence of CYP2D6 (P10635 whole entry): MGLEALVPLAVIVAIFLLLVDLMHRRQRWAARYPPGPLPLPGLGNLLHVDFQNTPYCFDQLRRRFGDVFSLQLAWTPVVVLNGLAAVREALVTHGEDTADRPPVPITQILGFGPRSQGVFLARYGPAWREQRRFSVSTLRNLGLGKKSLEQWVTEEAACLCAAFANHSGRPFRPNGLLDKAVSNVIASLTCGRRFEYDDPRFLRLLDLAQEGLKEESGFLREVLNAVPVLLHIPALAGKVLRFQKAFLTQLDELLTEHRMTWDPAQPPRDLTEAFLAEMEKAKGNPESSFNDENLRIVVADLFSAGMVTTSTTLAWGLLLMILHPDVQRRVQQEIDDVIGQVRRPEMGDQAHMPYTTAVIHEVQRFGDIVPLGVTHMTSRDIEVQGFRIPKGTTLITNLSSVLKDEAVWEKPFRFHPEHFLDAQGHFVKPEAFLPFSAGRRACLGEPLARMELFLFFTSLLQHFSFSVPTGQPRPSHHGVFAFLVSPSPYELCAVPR
Sequence of CYP1A2 (P05177 whole entry): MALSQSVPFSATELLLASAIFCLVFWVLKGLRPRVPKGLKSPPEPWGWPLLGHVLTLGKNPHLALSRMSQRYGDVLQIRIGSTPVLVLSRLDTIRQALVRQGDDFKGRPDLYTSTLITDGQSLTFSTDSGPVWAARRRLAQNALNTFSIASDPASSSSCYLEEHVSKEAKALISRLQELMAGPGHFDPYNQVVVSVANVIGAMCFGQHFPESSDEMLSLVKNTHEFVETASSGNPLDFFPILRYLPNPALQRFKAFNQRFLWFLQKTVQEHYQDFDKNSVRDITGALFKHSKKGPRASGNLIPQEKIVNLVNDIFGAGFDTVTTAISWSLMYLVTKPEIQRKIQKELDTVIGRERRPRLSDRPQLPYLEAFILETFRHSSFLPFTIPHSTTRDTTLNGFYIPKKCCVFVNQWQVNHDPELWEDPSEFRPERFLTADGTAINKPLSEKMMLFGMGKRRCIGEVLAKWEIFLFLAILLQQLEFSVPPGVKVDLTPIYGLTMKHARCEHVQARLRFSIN

In the case of `C(=C\[C@H]1CCNC1)/c1cncc(OC2CCOCC2)c1` [Compound A, (R)-3-((E)-2-(pyrrolidin-3-yl)vinyl)-5-(tetrahydropyran-4-yloxy)pyridine], the water solubility [1] is reported as “limited water solubility”, the Ki [2] is reported as > 10 µM and the Ki ([2]; read-out: Rat hippocampus (α7) Ki, [3H]methyllycaconitine (MLA), rat hippocampal membranes) is reported as > 10 µM. For the same compound, the “time-dependent inhibition of CYP2B6” value [3] was “no evidence of time-dependent inhibition”, the IC50 [4] was > 20 µM and the IC50 [5] was > 20 µM. The IC50 [6] was > 20 µM, the IC50 [7] was > 20 µM and the IC50 [8] was > 20 µM. The “renal clearance share of total clearance” value [9] was “more than 50%”.

Source: patent US8153821B2, “Compounds” (priority 2008, dated 2012)
